Values after ≈ are worked out from the molar mass of the structure shown. Active and inactive are the calls of the source. The calls are words filed in the database; no cut-off is given here.
Legend:
[1] = target: Serine/threonine-protein kinase pim-1 (Homo sapiens) (UniProt P11309); test: Inhibition of PIM1 (unknown origin) at 1 uM
[2] = target: CDK2/Cyclin A2 (Homo sapiens) (UniProt P24941+P20248); test: Inhibition of CDK2/cyclin A (unknown origin) at 1 uM; assay type: protein-complex assay
[3] = system: HCT-116; test: Cytotoxicity against human HCT116 cells assessed as reduction in cell viability after 48 hrs by MTT assay; assay type: functional, cell-based; settings: HCT-116, 48 h
[4] = target: Mast/stem cell growth factor receptor Kit (Homo sapiens) (UniProt P10721); test: Inhibition of c-KIT (unknown origin) at 1 uM
[5] = target: Interleukin-1 receptor-associated kinase 4 (Homo sapiens) (UniProt Q9NWZ3); test: Inhibition of IRAK4 (unknown origin) at 1 uM
[6] = target: Serine/threonine-protein kinase PAK 4 (Homo sapiens) (UniProt O96013); test: Inhibition of PAK4 (unknown origin) at 1 uM
[7] = target: Tyrosine-protein kinase receptor UFO (Homo sapiens) (UniProt P30530); test: Inhibition of AXL (unknown origin) at 1 uM
[8] = target: Mitogen-activated protein kinase 3 (Homo sapiens) (UniProt P27361); test: Inhibition of ERK1 (unknown origin) at 1 uM
[9] = target: Death-associated protein kinase 3 (Homo sapiens) (UniProt O43293); test: Inhibition of ZIPK (unknown origin) at 1 uM
[10] = target: Platelet-derived growth factor receptor beta (Homo sapiens) (UniProt P09619); test: Inhibition of PDGFRbeta (unknown origin) at 1 uM
[11] = system: HCT-116; test: Inhibition of cytokinesis in human HCT116 cells at 100 nM after 24 hrs by propidium iodide/RNase staining-based flow cytometric analysis; assay type: functional, cell-based
[12] = Solubility of the compound in phosphate buffer of pH 7.4 after 24 hrs by RP-HPLC analysis; assay type: physicochemical; settings: phosphate buffer, pH 7.4
[13] = target: Fibroblast growth factor receptor 3 (Homo sapiens) (UniProt P22607); test: Inhibition of FGFR3 (unknown origin) at 1 uM
[14] = target: Serine/threonine-protein kinase Chk1 (Homo sapiens) (UniProt O14757); test: Inhibition of CHK1 (unknown origin) at 1 uM
[15] = target: Tyrosine-protein kinase ABL1 (Homo sapiens) (UniProt P00519); test: Inhibition of ABL (unknown origin) at 1 uM
[16] = target: Protein kinase C alpha type (Homo sapiens) (UniProt P17252); test: Inhibition of PKCalpha (unknown origin) at 1 uM
[17] = target: Serine/threonine-protein kinase PAK 1 (Homo sapiens) (UniProt Q13153); test: Inhibition of PAK1 (unknown origin) at 1 uM
[18] = system: HCT-116; test: Induction of apoptosis in human HCT116 cells at 1 uM after 72 hrs by Annexin V-FITC/propidium iodide staining-based flow cytometric analysis; assay type: functional, cell-based
[19] = target: Serine/threonine-protein kinase B-raf (Homo sapiens) (UniProt P15056); test: Inhibition of BRAF (unknown origin) at 1 uM
[20] = system: HCT-15; test: Cytotoxicity against human HCT15 cells assessed as reduction in cell viability after 48 hrs by MTT assay; assay type: functional, cell-based; settings: HCT-15, 48 h
[21] = target: Inhibitor of nuclear factor kappa-B kinase subunit beta (Homo sapiens) (UniProt O14920); test: Inhibition of IKKbeta (unknown origin) at 1 uM
[22] = target: Epithelial discoidin domain-containing receptor 1 (Homo sapiens) (UniProt Q08345); test: Inhibition of DDR1 (unknown origin) at 1 uM
[23] = Solubility of the compound in phosphate buffer of pH 2 after 24 hrs by RP-HPLC analysis; assay type: physicochemical
[24] = target: Tyrosine-protein kinase CSK (Homo sapiens) (UniProt P41240); test: Inhibition of CSK (unknown origin) at 1 uM
[25] = target: Tyrosine-protein kinase JAK3 (Homo sapiens) (UniProt P52333); test: Inhibition of JAK3 (unknown origin) at 1 uM
[26] = target: Receptor-type tyrosine-protein kinase FLT3 (Homo sapiens) (UniProt P36888); test: Inhibition of FLT3 (unknown origin) at 1 uM
[27] = target: Insulin receptor (Homo sapiens) (UniProt P06213); test: Inhibition of INSR (unknown origin) at 1 uM
[28] = target: Vascular endothelial growth factor receptor 2 (Homo sapiens) (UniProt P35968); test: Inhibition of VEGFR2 (unknown origin) at 1 uM
[29] = system: HCT-116; test: Induction of apoptosis in human HCT116 cells at 100 nM after 72 hrs by Annexin V-FITC staining-based flow cytometric analysis; assay type: functional, cell-based
[30] = system: HCT-116; test: Inhibition of cytokinesis in human HCT116 cells at 1 uM after 24 hrs by propidium iodide/RNase staining-based flow cytometric analysis; assay type: functional, cell-based
[31] = target: Tyrosine-protein kinase SYK (Homo sapiens) (UniProt P43405); test: Inhibition of SYK (unknown origin) at 1 uM
[32] = target: T1, Aurora kinase B (Homo sapiens, UniProt Q96GD4); test: Inhibition of recombinant Aurora B (unknown origin) using TAMRA-PKAtide as substrate after 1 hr by fluorescence polarization assay
[33] = target: High affinity nerve growth factor receptor (Homo sapiens) (UniProt P04629); test: Inhibition of TrkA (unknown origin) at 1 uM
[34] = target: Rho-associated protein kinase 2 (Homo sapiens) (UniProt O75116); test: Inhibition of ROCK2 (unknown origin) at 1 uM
[35] = target: Serine/threonine-protein kinase mTOR (Homo sapiens) (UniProt P42345); test: Inhibition of mTOR (unknown origin) at 1 uM
[36] = target: Proto-oncogene tyrosine-protein kinase Src (Homo sapiens) (UniProt P12931); test: Inhibition of c-Src (unknown origin) at 1 uM
[37] = target: T2, Aurora kinase A (Homo sapiens, UniProt O14965); test: Inhibition of recombinant Aurora A (unknown origin) using TAMRA-PKAtide as substrate after 30 mins by fluorescence polarization assay
T2 sequence (O14965 whole entry): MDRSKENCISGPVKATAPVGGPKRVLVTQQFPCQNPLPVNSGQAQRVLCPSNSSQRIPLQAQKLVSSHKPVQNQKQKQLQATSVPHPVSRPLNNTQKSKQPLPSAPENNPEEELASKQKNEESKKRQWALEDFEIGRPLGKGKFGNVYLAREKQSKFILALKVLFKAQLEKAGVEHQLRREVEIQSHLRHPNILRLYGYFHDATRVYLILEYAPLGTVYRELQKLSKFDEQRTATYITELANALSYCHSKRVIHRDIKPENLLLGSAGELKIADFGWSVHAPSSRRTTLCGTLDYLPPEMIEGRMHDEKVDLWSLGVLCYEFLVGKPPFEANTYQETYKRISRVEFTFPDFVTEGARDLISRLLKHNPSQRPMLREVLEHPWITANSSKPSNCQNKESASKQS

[38] = target: Angiopoietin-1 receptor (Homo sapiens) (UniProt Q02763); test: Inhibition of TIE2 (unknown origin) at 1 uM
[39] = target: Proto-oncogene tyrosine-protein kinase receptor Ret (Homo sapiens) (UniProt P07949); test: Inhibition of RET (unknown origin) at 1 uM
[40] = target: Hepatocyte growth factor receptor (Homo sapiens) (UniProt P08581); test: Inhibition of c-MET (unknown origin) at 1 uM
[41] = target: T1, Aurora kinase B; test: Inhibition of Aurora B phosphorylation at Thr232 residue in human HCT116 cells over 100 nM after 3 hrs by Western blot method; assay type: cell-based
[42] = target: Cyclin-dependent kinase 4/cyclin D1 (Homo sapiens) (UniProt P11802+P24385); test: Inhibition of CDK4/Cyclin D1 (unknown origin) at 1 uM; assay type: protein-complex assay

T1 sequence (Q96GD4 whole entry): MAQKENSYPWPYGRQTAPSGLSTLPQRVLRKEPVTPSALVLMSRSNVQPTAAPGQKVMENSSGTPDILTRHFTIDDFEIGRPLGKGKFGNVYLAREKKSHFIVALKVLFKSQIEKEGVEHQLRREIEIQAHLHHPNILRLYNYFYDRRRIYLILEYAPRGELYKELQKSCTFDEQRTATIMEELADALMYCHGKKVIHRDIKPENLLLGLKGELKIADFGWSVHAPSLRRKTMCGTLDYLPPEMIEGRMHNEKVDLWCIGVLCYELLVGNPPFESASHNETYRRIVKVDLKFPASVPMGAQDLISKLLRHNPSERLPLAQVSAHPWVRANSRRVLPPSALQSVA
Chain of Serine/threonine-protein kinase PAK 1 (Homo sapiens) (Q13153 whole entry): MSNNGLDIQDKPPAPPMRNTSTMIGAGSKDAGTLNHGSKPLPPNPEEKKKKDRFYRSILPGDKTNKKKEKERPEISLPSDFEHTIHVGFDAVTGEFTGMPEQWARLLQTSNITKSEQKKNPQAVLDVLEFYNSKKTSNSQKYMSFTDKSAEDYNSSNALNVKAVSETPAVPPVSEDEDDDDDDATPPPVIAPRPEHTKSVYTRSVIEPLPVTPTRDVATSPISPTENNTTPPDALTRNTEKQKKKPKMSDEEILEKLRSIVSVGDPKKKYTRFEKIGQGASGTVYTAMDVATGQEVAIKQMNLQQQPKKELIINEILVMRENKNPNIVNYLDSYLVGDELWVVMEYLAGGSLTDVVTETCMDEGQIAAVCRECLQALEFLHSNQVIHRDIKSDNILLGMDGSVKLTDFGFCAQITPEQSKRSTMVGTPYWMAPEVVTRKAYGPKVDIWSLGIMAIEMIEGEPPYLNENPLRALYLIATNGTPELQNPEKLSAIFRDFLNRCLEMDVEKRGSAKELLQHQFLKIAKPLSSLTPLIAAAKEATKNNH
Chain of High affinity nerve growth factor receptor (Homo sapiens) (P04629 33-796 limits assumed): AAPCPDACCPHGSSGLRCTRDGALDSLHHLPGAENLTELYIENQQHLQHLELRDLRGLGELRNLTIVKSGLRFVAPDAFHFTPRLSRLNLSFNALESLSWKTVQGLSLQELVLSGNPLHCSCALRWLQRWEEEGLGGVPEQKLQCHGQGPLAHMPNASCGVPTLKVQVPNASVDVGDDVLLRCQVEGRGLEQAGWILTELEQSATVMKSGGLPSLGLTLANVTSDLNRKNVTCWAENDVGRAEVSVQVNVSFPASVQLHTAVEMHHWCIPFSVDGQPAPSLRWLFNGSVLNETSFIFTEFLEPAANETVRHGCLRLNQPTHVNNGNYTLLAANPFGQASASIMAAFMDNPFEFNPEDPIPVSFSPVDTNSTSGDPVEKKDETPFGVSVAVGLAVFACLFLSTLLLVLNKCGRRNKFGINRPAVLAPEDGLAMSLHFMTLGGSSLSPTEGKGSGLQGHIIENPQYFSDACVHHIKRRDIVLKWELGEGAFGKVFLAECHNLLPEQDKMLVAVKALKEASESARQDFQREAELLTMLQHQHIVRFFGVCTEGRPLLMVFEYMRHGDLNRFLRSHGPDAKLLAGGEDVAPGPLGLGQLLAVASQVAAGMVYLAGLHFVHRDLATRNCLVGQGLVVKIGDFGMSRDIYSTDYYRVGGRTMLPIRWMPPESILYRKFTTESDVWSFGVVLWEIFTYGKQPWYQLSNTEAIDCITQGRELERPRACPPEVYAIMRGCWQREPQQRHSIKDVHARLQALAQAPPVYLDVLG
Chain of Serine/threonine-protein kinase pim-1 (Homo sapiens) (P11309 whole entry, looked up): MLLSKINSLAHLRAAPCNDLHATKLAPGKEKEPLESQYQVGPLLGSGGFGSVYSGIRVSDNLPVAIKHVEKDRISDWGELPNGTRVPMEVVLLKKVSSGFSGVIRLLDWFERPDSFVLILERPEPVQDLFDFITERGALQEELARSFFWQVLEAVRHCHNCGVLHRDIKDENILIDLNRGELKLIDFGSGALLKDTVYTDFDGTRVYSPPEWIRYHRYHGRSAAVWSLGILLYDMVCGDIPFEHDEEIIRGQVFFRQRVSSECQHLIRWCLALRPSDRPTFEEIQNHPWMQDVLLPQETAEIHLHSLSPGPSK
Chain of Serine/threonine-protein kinase Chk1 (Homo sapiens) (O14757 whole entry): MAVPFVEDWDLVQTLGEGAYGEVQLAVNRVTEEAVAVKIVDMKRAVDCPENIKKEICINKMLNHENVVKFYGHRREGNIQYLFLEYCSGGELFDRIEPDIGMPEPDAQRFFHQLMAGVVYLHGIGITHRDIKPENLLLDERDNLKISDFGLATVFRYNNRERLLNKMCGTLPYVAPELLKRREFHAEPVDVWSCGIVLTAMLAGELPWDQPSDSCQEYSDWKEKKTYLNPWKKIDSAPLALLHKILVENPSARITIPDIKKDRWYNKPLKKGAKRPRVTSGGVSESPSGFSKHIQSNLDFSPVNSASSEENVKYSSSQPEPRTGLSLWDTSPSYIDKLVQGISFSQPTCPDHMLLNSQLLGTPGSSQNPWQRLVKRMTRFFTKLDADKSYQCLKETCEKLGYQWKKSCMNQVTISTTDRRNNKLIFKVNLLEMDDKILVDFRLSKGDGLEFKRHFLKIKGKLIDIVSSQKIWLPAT
Chain of Mitogen-activated protein kinase 3 (Homo sapiens) (P27361 whole entry): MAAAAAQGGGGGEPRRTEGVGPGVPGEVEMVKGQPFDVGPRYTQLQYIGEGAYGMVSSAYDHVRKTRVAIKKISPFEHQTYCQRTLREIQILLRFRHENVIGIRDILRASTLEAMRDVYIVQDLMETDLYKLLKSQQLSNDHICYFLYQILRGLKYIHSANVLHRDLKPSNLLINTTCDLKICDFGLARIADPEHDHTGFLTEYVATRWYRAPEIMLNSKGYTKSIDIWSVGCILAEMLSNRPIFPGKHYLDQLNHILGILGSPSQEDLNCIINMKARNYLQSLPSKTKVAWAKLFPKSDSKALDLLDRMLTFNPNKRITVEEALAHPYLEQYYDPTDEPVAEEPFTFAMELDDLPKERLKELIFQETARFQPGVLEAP
Chain of Tyrosine-protein kinase receptor UFO (Homo sapiens) (P30530 whole entry): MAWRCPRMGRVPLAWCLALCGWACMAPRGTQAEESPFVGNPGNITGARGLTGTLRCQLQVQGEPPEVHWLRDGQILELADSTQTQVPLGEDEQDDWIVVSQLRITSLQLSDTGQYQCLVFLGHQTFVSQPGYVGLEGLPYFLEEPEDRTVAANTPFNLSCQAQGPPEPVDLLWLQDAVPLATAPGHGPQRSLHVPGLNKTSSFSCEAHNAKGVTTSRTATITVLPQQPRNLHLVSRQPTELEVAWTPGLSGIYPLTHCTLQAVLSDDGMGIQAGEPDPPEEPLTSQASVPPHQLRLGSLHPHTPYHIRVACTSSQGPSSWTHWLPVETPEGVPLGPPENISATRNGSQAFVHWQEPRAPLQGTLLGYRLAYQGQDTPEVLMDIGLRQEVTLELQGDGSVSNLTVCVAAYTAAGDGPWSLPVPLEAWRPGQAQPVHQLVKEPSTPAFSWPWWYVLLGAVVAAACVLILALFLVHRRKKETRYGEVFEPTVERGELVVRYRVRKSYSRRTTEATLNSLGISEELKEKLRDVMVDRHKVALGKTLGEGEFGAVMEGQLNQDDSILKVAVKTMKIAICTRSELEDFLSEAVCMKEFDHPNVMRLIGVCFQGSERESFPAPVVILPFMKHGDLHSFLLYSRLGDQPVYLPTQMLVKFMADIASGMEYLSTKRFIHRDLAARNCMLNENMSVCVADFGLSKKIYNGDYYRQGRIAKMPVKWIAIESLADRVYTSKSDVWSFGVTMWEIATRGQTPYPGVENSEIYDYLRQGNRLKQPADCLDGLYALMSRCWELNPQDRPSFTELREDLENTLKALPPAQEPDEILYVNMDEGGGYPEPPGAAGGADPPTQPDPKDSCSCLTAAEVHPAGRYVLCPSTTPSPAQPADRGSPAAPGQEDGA
Chain of Interleukin-1 receptor-associated kinase 4 (Homo sapiens) (Q9NWZ3 whole entry): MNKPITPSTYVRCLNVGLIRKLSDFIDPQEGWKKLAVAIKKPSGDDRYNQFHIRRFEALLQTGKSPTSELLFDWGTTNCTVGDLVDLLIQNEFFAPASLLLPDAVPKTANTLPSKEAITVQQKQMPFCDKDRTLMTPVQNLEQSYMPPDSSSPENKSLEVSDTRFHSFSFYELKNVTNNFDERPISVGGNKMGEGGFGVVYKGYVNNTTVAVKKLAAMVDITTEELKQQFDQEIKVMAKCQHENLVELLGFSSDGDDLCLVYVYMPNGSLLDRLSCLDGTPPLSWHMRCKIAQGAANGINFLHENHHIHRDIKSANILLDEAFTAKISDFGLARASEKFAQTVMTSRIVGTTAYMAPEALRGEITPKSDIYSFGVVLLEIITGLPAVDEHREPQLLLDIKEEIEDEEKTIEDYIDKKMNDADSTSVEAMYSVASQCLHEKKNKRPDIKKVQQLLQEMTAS

- inhibition [1]: 41.6%
- inhibition [2]: 22.8%
- inhibition [4]: 28.9%
- inhibition [5]: 8.14%
- inhibition [6]: 11.2%
- inhibition [7]: 37.2%
- inhibition [8]: 17.6%
- inhibition [10]: 61.3%
- solubility at 24 h [12]: 13.1 µM (≈ 5.42 µg/mL)
- inhibition [13]: 14.4%
- inhibition [14]: 16.4%
- inhibition [15]: 88.8%
- inhibition [16]: 17.9%
- inhibition [17]: 5.28%
- inhibition [19]: -0.3%
- inhibition [21]: 30.7%
- inhibition [22]: 75.9%
- solubility at 24 h [23]: 8 µM (≈ 3.31 µg/mL)
- inhibition [24]: 19.5%
- inhibition [25]: 54.6%
- inhibition [26]: 46.6%
- inhibition [27]: 3%
- inhibition [28]: 68.2%
- inhibition [31]: 51.1%
- IC50 [32]: 23 nM
- inhibition [33]: 46.9%
- inhibition [34]: 15.7%
- inhibition [35]: 3.66%
- inhibition [36]: 94.4%
- IC50 [37]: 9 nM
- inhibition [38]: 0.75%
- inhibition [39]: 97.2%
- inhibition [40]: 2.76%
- inhibition [41]: Active
- inhibition [42]: 27%
Compound: CNC(=O)Nc1sc2c(C(C)C)cc(NS(=O)(=O)N(C)C)cc2c1C(N)=O
- IC50 [3]: 300 nM
- inhibition [9]: 39.6%
- Cytokinesis inhibition (active/inactive call) [11]: Active
- Activity [18]: inactive
- IC50 [20]: 1600 nM
- Activity [29]: inactive
- Cytokinesis inhibition (active/inactive call) [30]: Active

From ChEMBL document CHEMBL4265887 (Bioorg Med Chem Lett, 2018)
